Laboratory results from patent publication US7786141B2 (Vertex Pharmaceuticals Incorporated, priority 2004, dated 2010).

Legend:
M1 muscarinic receptor = target: T1, M1 muscarinic receptor (Homo sapiens, UniProt P11229); experiment: Functional mobilization of intracellular calcium (FLIPR) in M1-CHO cells; format: cell-based; settings: M1 receptor, calcium mobilization; for Emax: read-out: M1 Efficacy
T1 construct: expressed in transfected cells; host or cells: CHO (M1-CHO)
T1 sequence (P11229 1-460): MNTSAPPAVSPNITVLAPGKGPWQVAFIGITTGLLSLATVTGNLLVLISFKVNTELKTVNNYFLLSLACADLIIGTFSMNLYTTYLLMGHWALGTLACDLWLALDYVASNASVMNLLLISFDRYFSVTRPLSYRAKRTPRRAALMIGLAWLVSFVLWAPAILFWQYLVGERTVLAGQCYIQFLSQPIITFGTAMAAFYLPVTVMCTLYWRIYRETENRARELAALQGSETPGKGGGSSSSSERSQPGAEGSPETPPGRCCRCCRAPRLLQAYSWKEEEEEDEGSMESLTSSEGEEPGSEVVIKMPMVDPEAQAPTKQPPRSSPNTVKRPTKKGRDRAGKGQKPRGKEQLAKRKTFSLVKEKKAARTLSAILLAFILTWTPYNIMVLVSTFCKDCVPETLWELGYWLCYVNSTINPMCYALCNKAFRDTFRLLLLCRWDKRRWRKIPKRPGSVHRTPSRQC
Outline: (§1)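 Two modes: direct compound addition for agonism, or 15 min compound pre-incubation (or co-application) before carbachol at EC80 for inhibition. Calcium signal from Fluo-3 AM or Calcium 3 dye in CHO cells, 1 mM probenecid, pH 7.4, read 60 sec at 488/540 nm; DMSO 0.5% final.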

M4 muscarinic receptor = target: T2, M4 muscarinic receptor (Homo sapiens, UniProt P08173); experiment: Functional mobilization of intracellular calcium (FLIPR) in M4-CHO cells; format: cell-based; settings: M4 receptor, calcium mobilization; for Emax: read-out: M4 Efficacy
T2 construct: expressed in transfected cells; host or cells: CHO (M4-CHO)
T2 sequence (P08173 1-479): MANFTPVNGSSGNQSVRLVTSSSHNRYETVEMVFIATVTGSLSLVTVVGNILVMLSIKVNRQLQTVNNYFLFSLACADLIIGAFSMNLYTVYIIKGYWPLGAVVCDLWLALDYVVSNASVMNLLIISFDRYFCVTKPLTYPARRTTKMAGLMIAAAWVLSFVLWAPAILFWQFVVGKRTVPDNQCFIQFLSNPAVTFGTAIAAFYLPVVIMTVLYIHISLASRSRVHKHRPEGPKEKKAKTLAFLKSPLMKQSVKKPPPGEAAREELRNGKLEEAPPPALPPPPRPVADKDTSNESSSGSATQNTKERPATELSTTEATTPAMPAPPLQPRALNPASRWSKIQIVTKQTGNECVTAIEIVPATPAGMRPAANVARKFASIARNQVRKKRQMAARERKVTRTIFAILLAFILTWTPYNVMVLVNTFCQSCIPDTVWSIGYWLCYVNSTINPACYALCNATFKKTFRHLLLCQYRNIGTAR
Outline: as §1

| SMILES | M1 Activity (M1 muscarinic receptor) | Emax (M1 muscarinic receptor) | M4 Activity (M4 muscarinic receptor) | Emax (M4 muscarinic receptor) | M1 Efficacy (M1 muscarinic receptor) | M4 Efficacy (M4 muscarinic receptor) |
| --- | --- | --- | --- | --- | --- | --- |
| CC(=O)NC1CC2(CCN(C[C@H]3C[C@H]4C=C[C@H]3C4)CC2)c2ccccc21 (stereo partly drawn) [compound 213] | xx (activity was measured to be between 0.1 μM and 1.0 μM) | 65 to 85% | x (activity was measured to be greater than 1.0 μM) | < 65% |  |  |
| CCOC(=O)N1C2CCC1CC(N1CCC3(CC1)CN(C(=O)C1CC1)c1ccc(F)cc13)C2 (stereo not drawn) [compound 214] | x (activity was measured to be greater than 1.0 μM) | < 65% | x (activity was measured to be greater than 1.0 μM) | < 65% |  |  |
| COCCOC(=O)N1C2CCC1CC(N1CCC3(CC1)CN(C(=O)O[C@@H]1CCOC1)c1ccc(F)cc13)C2 (stereo partly drawn) [compound 216] | xxx (activity was measured to be less than 0.1 μM) |  | x (activity was measured to be greater than 1.0 μM) |  | xxx (efficacy was calculated to be greater than 85%) | x (efficacy was calculated to be less than 65%) |
| O=C(OC1CCC1)N1C2CCC1CC(N1CCC3(CC1)C(=O)Nc1ccccc13)C2 (stereo not drawn) [compound 217] | xx (activity was measured to be between 0.1 μM and 1.0 μM) | < 65% | x (activity was measured to be greater than 1.0 μM) | < 65% |  |  |
| CCNC(=O)N1C2CCC1CC(N1CCC3(CC1)COc1ccc(F)cc13)C2 (stereo not drawn) [compound 219] | x (activity was measured to be greater than 1.0 μM) | 65 to 85% | x (activity was measured to be greater than 1.0 μM) | < 65% |  |  |
| CCCCOC(=O)N1CC2(CCN(C3CCN(C(=O)OCC)CC3)CC2)c2cc(F)ccc21 [compound 220] | x (activity was measured to be greater than 1.0 μM) | 65 to 85% | x (activity was measured to be greater than 1.0 μM) | < 65% |  |  |
| CCOC(=O)N1CCC(N2CCC3(CC2)CN(C(C)=O)c2ccc(-c4ccc(C(C)=O)cc4)cc23)CC1 [compound 221] | xx (activity was measured to be between 0.1 μM and 1.0 μM) | 65 to 85% | x (activity was measured to be greater than 1.0 μM) | < 65% |  |  |
| CCOC(=O)N1C2CCC1CC(N1CCC3(CC1)CN(C(=O)c1ccc(F)cc1)c1ccc(F)cc13)C2 (stereo not drawn) [compound 222] | x (activity was measured to be greater than 1.0 μM) | < 65% | x (activity was measured to be greater than 1.0 μM) | < 65% |  |  |
| CCOC(=O)N1CCC(N2CCC3(CC2)CN(C(=O)N(CC)CC)c2ccc(F)cc23)CC1 [compound 223] | x (activity was measured to be greater than 1.0 μM) | < 65% | x (activity was measured to be greater than 1.0 μM) | < 65% |  |  |
| Clc1ccc2c(c1)C1(CCN(C3CC4CCC3C4)CC1)CN2 (stereo not drawn) [compound 224] | x (activity was measured to be greater than 1.0 μM) | 65 to 85% | x (activity was measured to be greater than 1.0 μM) | < 65% |  |  |
| CCOC(=O)N1CCC(N2CCC3(CC2)CN(C(C)=O)c2ccc(OC(F)(F)F)cc23)CC1 [compound 225] | x (activity was measured to be greater than 1.0 μM) | < 65% | x (activity was measured to be greater than 1.0 μM) | < 65% |  |  |
| CC(=O)N1CC2(CCN(C3CCC(C(C)C)CC3)CC2)c2cc(F)ccc21 (stereo not drawn) [compound 226] | x (activity was measured to be greater than 1.0 μM) | < 65% | x (activity was measured to be greater than 1.0 μM) | < 65% |  |  |
| CS(=O)(=O)N[C@@H]1CC2(CCN(C[C@H]3C[C@H]4CC[C@H]3C4)CC2)c2ccccc21 [compound 227] | xxx (activity was measured to be less than 0.1 μM) | > 85% | xxx (activity was measured to be less than 0.1 μM) | > 85% |  |  |
| CCOC(=O)C1CCC(N2CCC3(CC2)CN(C(C)=O)c2ccc(F)cc23)CC1 (stereo not drawn) [compound 228] | x (activity was measured to be greater than 1.0 μM) | < 65% | x (activity was measured to be greater than 1.0 μM) | < 65% |  |  |
| CCOC(=O)N1CCC(N2CCC3(CC2)CN(CCC(=O)CC)c2ccc(F)cc23)CC1 [compound 229] | xx (activity was measured to be between 0.1 μM and 1.0 μM) | < 65% | xxx (activity was measured to be less than 0.1 μM) | > 85% |  |  |
| C#CCCOC(=O)N1C2CCC1CC(N1CCC3(CC1)CN(C(=O)N(C)C)c1ccc(F)cc13)C2 (stereo not drawn) [compound 230] | x (activity was measured to be greater than 1.0 μM) | < 65% | xx (activity was measured to be between 0.1 μM and 1.0 μM) | > 85% |  |  |
| CCCNC(=O)N1C2CCC1CC(N1CCC3(CC1)COc1ccc(F)cc13)C2 (stereo not drawn) [compound 231] | x (activity was measured to be greater than 1.0 μM) | 65 to 85% | x (activity was measured to be greater than 1.0 μM) | > 85% |  |  |
| Cc1ccc2c(c1)C1(CCN(C3CC4CCC3C4)CC1)CN2S(C)(=O)=O (stereo not drawn) [compound 232] | xx (activity was measured to be between 0.1 μM and 1.0 μM) | < 65% | xxx (activity was measured to be less than 0.1 μM) | > 85% |  |  |
| Cc1cc(C(=O)N2CC3(CCN(C4CC5CCC(C4)N5C(=O)O[C@@H]4CCOC4)CC3)c3cc(F)ccc32)nn1C (stereo partly drawn) [compound 233] | xxx (activity was measured to be less than 0.1 μM) | 65 to 85% | xxx (activity was measured to be less than 0.1 μM) | > 85% |  |  |
| CCOC(=O)N1CCC(N2CCC3(CC2)CN(C(C)=O)c2ccc(-c4cccnc4)cc23)CC1 [compound 234] | xxx (activity was measured to be less than 0.1 μM) | 65 to 85% | xxx (activity was measured to be less than 0.1 μM) | 65 to 85% |  |  |
| COC(=O)N1CC2(CCN(C3CC4CCC(C3)N4C(=O)OC)CC2)c2cc(F)ccc21 (stereo not drawn) [compound 235] | xx (activity was measured to be between 0.1 μM and 1.0 μM) | 65 to 85% | x (activity was measured to be greater than 1.0 μM) | 65 to 85% |  |  |
| CC(=O)N1CC2(CCN(C3CCC(C(F)(F)F)CC3)CC2)c2cc(F)ccc21 (stereo not drawn) [compound 236] | xxx (activity was measured to be less than 0.1 μM) | 65 to 85% | xx (activity was measured to be between 0.1 μM and 1.0 μM) | 65 to 85% |  |  |
| CCOC(=O)N1CCC(CN2CCC3(CC2)CN(C(C)=O)c2ccc(OC)cc23)CC1 [compound 237] | xxx (activity was measured to be less than 0.1 μM) | < 65% | xx (activity was measured to be between 0.1 μM and 1.0 μM) | < 65% |  |  |
| O=C1CC2(CCN(C[C@@H]3C[C@H]4C=C[C@H]3C4)CC2)c2ccccc21 [compound 238] | x (activity was measured to be greater than 1.0 μM) | < 65% | x (activity was measured to be greater than 1.0 μM) | < 65% |  |  |
